Source: ChEMBL document CHEMBL1143866, “Syntheses of N3-substituted thymine acyclic nucleoside phosphonates and a comparison of their inhibitory effect towards thymidine phosphorylase” (Bioorg Med Chem Lett, 2008)

Columns and labels:
[1] = target: Thymidine phosphorylase (Escherichia coli K-12) (UniProt P07650); test: Inhibition of Escherichia coli thymidine phosphorylase assessed as ratio of phosphorolysis in presence of drug to control at 10 umol/l
[2] = target: T1, Thymidine phosphorylase (Rattus norvegicus) (UniProt Q5FVR2); test: Inhibition of Sprague-Dawley rat lymphoma thymidine phosphorylase assessed as ratio of phosphorolysis in presence of drug to control at 10 umol/l
T1 sequence (whole entry): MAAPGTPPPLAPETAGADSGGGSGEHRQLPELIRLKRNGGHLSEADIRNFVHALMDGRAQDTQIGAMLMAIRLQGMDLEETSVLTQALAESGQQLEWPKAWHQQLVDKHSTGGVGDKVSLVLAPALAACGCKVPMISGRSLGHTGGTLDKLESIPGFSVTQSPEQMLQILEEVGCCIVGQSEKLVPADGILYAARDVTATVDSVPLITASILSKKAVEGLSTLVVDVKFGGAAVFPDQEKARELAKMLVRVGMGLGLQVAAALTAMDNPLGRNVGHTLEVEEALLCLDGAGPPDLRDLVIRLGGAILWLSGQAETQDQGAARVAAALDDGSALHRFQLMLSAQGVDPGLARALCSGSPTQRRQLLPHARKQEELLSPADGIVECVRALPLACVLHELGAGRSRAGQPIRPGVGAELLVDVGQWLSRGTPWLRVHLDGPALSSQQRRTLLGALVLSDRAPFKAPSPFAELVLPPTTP

Thymidine phosphorylase (Escherichia coli K-12), sequence (P07650 whole entry, looked up): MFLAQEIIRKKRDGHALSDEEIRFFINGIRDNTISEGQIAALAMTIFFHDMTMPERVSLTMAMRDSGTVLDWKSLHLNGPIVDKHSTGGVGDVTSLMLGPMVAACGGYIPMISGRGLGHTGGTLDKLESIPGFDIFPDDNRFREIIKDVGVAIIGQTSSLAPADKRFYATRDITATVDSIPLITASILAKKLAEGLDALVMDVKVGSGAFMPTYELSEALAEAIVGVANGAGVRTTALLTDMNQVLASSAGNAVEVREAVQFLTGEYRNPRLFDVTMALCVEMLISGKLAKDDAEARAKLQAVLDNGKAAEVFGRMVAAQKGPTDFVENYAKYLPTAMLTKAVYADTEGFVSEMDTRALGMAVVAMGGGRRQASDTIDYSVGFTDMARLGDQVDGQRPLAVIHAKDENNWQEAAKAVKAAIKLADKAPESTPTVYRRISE

Row | SMILES | Ratio [1] | Ratio [2]
1 | Cc1c[nH]c(=O)n(C[C@@H](CF)OCP(=O)(O)O)c1=O | 0.93 | 
2 | Cc1c[nH]c(=O)n(CCOCP(=O)(O)O)c1=O | 1.07 | 1.44

The next lines start with the values.

Row | Ratio [1] | Ratio [2] | SMILES
3 | 0.94 |  | Cc1c[nH]c(=O)n(C[C@@H](CO)OCP(=O)(O)O)c1=O
4 | 0.98 | 0.75 | Cc1c[nH]c(=O)n(C[C@H](CF)OCP(=O)(O)O)c1=O
5 | 1.01 | 0.78 | Cc1c[nH]c(=O)n(C[C@H](CO)OCP(=O)(O)O)c1=O
